According to US5322772A (Children's Research Institute, priority 1991, dated 1994):

Legend:
FKBP [1] = molecular target: FKBP (Homo sapiens, UniProt P62942); settings: cited from earlier work
Candida albicans = settings: especially Candida albicans; cited from earlier work
50-58 kDa protein = assay: LH-20 binding assay with purified 50-58 kDa binding protein from JURKAT cytosol; parameters: species or system human; settings: for Kd: 50-58 kDa protein from peripheral blood mononuclear leukocytes and JURKAT cytosol
Experimental: E. The reaction mixture, typically a 100 μl aliquot run in duplicate, is poured onto a column of convenient dimension, such as 0.8×7.0 cm of a molecular sieve matrix such as LH-20 Sephadex (Pharmacia Fine Chemicals, Piscataway, N.J.).
The S-100 fraction was further filtered (0.45 μm pore size membrane, Gelman Sciences), the filtrate (2.9 mg protein) passed through a 600×7.5 nun Bio-Sil-125 HPLC exclusion column at a flow rate of 1.0 ml/minute in 10 mM phosphate buffer, pH 6.8; protein elution was monitored at 280 nm. Fractions (1 ml) were collected and analyzed for binding of ^3 H-dihydro FK-506 using the previously described LH-20 assay, Donnelly et al., 1991, above, which is herein incorporated by reference. Specific binding was determined by assaying each fraction without (total binding) and with ([…]) an excess of unlabeled FK-506.
The 58 kDa protein was purified from 1.4×10^10 human T-cells (JURKAT). The S-100 fraction (10 ml) was centrifuged at 2500×g for 1 hour at 4° C. in a 30 kDa Centriprep™ concentrator (Amicon Corp., Danvers, Ma.). The concentrate (1 ml) was diluted with 15 ml of 10 mM phosphate buffer, pH 6.8, and concentrated down to 5 ml. This step removed proteins of less than 30 kDa, i.e., cyclophilin and FKBP, from the S-100 fraction.
[…] FK-506 and CsA drugs was refocused under the same conditions, using only the ampholytes contained in the 2.7 ml fraction (diluted to 55 ml with deionized water). Focusing was complete when a constant voltage of 2200 was reached.
The 20 fractions were assayed for drug binding as above. […] This fraction (3.02 mg in 2.7 ml) was chromatographed in a Bio-Sil-125 HPLC column at a flow rate of 1.0 ml/minute in 10 mM phosphate buffer, pH 6.8. Fractions representing proteins of 50-60 kDa were screened for binding to both FK-506 and CsA.
Binding fractions were probed and chromatographed on a Beckman TSK CM-25W Spherogel column (26×4.6 mm) at a flow rate of 0.5 ml/minute in 10 mM phosphate buffer, pH 6.8. Fractions containing binding activity were probed and used for binding assays.
The binding assay was the LH-20 assay of Example 1.
The LH binding assay was used for generating the competition curve of FIG. 4.

[2] = tested on: 17 kDa (presumably cyclophilin) and 50 kDa cyclosporine A binding proteins; assay: Binding of 3H-cyclosporine A to HPLC fractions of JURKAT S-100 cytosol (LH-20 assay); parameters: species or system human; settings: rapamycin at 70 nM; either protein (17 kDa, 50 kDa)
Text: The experimental conditions of Example 1A were repeated, except that ^3 H-cyclosporine A and unlabeled cyclosporine A were substituted for FK-506.

[3] = tested on: experimental immunopathies; settings: rats; cited from earlier work
FKBP [4] = settings: FKBP isolated from yeast, calf thymus and human T cells (JURKAT); cited from earlier work
immune responses = settings: fold greater than cyclosporine A; cited from earlier work

Sequence of FKBP (Homo sapiens, UniProt P62942) (P62942 whole entry): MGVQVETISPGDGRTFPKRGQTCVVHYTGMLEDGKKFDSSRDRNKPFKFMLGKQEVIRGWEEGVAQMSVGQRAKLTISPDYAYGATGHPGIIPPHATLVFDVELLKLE

Compound: CO[C@H]1C[C@@H]2CC[C@@H](C)[C@@](O)(O2)C(=O)C(=O)N2CCCC[C@H]2C(=O)O[C@H]([C@H](C)C[C@@H]2CC[C@@H](O)[C@H](OC)C2)CC(=O)[C@H](C)/C=C(\C)[C@@H](O)[C@@H](OC)C(=O)[C@H](C)C[C@H](C)/C=C/C=C/C=C/1C [RAP, Rapamycin]
- inhibition of isomerase activity of FKBP (FKBP [1]): potent inhibitor
- activity against Candida species (Candida albicans): highly active
- Kd (50-58 kDa protein): 0.1 nM
- effect on binding of 3H-CsA (50-58 kDa protein; RAP at 300 nM, purified 58 kDa protein): unaffected
- IC50 (50-58 kDa protein; inhibition of specific binding of 3H-dihydro FK-506 to purified 58 kDa protein, read-out: B50 value): 0.1 nM
- inhibition of specific binding of 3H-dihydro FK-506 (50-58 kDa protein; purified 58 kDa protein, RAP 0.005-500 nM): inhibited in a dose-dependent manner
- effect on binding of cyclosporine A [2]: did not affect
- development of experimental immunopathies and formation of IgE-like antibody [3]: totally prevented

Compound: C=CC[C@@H]1/C=C(\C)C[C@H](C)C[C@H](OC)[C@H]2O[C@@](O)(C(=O)C(=O)N3CCCC[C@H]3C(=O)O[C@H](/C(C)=C/[C@@H]3CC[C@@H](O)[C@H](OC)C3)[C@H](C)[C@@H](O)CC1=O)[C@H](C)C[C@@H]2OC [FK-506]
- Kd (FKBP [4]): 0.4 nM
- inhibition of CsA binding (50-58 kDa protein; 50-58 kDa protein): inhibited by FK-506 in a dose-dependent manner
- Kd (50-58 kDa protein): 2 nM
- potency of inhibiting immune responses relative to cyclosporine A (immune responses): 100-500 fold
